Results from ChEMBL document CHEMBL3045958, “The design and synthesis of inhibitors of adenosine 5'-monophosphate deaminase” (Bioorg Med Chem Lett, 1999).
Blank lines part the entries; values can stand above or below the compound they belong to. The source made the active and inactive calls. The calls are words filed in the database; no cut-off is given here.

Legend:
AMP deaminase 1 = molecular target: T1, AMP deaminase 1 (Oryctolagus cuniculus, UniProt P81072); assay: Inhibition of Oryctolagus cuniculus (rabbit) muscle adenylate deaminase; parameters: species or system Muscle tissue
T1 sequence (P81072 whole entry): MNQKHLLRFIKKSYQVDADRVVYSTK

[1] = Inhibition of adenylate deaminase
Adenosine deaminase = molecular target: T2, Adenosine deaminase (Bos taurus, UniProt P56658); assay: Inhibition of Bos taurus (calf) […]
T2 sequence (P56658 whole entry): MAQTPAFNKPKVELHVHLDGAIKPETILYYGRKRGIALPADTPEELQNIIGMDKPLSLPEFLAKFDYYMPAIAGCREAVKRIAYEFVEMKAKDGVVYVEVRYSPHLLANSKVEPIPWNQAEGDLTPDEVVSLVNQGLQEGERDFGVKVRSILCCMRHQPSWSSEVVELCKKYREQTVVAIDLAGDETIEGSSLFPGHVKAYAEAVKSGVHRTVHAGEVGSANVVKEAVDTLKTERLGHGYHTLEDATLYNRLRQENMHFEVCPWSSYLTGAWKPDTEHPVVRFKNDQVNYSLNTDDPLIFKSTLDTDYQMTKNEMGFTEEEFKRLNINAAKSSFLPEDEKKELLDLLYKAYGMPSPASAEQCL

Pisum sativum [2] = assay: Increase in ATP levels in Pisum sativum (pea) seedlings at 100 uM measured per gram of frozen weight after 24 hr by luciferase based assay (reference value: 213 to 226 nmol/g of frozen weight); assay type: functional, Lathyrus oleraceus
Pisum sativum [3] = assay: Increase in ATP levels in Pisum sativum (pea) seedlings at 100 uM measured per gram of frozen weight after 4 hr by luciferase based assay (reference value: 253 to 267 nmol/g of frozen weight); assay type: functional, Lathyrus oleraceus

IC50 (AMP deaminase 1): 0.07 µM
SMILES: O=P(O)(O)OC[C@H]1O[C@@H](c2n[nH]c3cncnc23)[C@H](O)[C@@H]1O

Ki (AMP deaminase 1): 6.5 µM
SMILES: O=P(O)(O)OC[C@H]1O[C@@H](n2cnc3cncnc32)[C@H](O)[C@@H]1O

inhibition [1]: inactive
SMILES: O=P(O)(O)OC[C@H]1C[C@@H](n2cnc3cncnc32)[C@H](O)[C@@H]1O

inhibition [1]: inactive
SMILES: OC[C@H]1C[C@@H](n2cnc3cncnc32)[C@H](O)[C@@H]1O

IC50 (Adenosine deaminase): 5 µM | inhibition [1]: inactive
SMILES: OC[C@H]1O[C@@H](c2n[nH]c3cncnc23)[C@H](O)[C@@H]1O [DEAMINOFORMYCIN]
Activity (Pisum sativum [2]): 693 nmol | Activity (Pisum sativum [3]): 423 nmol
